Laboratory results from PMC7904233 (Journal of medicinal chemistry, 2020).
Where two headings read alike, the source gives them in different places.

How the values were obtained:
[1] = test system: pEBOV Zaire (Mayinga variant); assay: microbe, parasite or virus in culture; assay type: cell-based, Zaire ebolavirus; conditions: for IC50: read-out: IC50 (μM) pEBOV
[2] = test system: ER; conditions: cited from earlier work; for Kd: read-out: Kd for ER
[3] = test system: infectious EBOV Zaire (Kikwit variant); assay type: cell-based, Zaire ebolavirus
[4] = test system: pMARV (Musoke variant); assay: microbe, parasite or virus in culture; assay type: cell-based, Marburg virus; conditions: read-out: IC50 (μM) pMARV
[5] = test system: ERα; assay type: cell-based, human
[6] = test system: pRESTV; assay type: cell-based, ebolavirus Reston
[7] = test system: pTFV; assay type: cell-based, ebolavirus Tai Forest
[8] = test system: pAIV-H5N1; assay type: cell-based, H5N1 avian influenza virus
[9] = test system: pMLAV; assay type: cell-based, Měnglà virus
[10] = test system: pVSV; assay type: cell-based, vesicular stomatitis virus
[11] = test system: infectious MARV (Angola variant); assay type: cell-based, Marburg virus
[12] = Human immunodeficiency virus 1, A549, 48 h

CN(C)CCOc1ccc(/C(=C(/CCCl)c2ccccc2)c2ccccc2)cc1 [Compound 1, Toremifene]
IC50 [1, 12]: < 0.1 µM

CC/C(=C(\c1ccccc1)c1ccc(OCCN(C)C)cc1)c1ccccc1 [Compound 5, Tamoxifen]
ER affinity [2]: 13.8 nM

COc1ccc2c(c1)CCC(c1ccccc1)=C2c1ccc(OCCN2CCCC2)cc1 [Compound 6, Nafoxidine]
IC50 [1, 12]: 0.1 ± 0.009 µM

Cc1c(-c2ccc(O)cc2)nn(-c2ccc(O)cc2)c1-c1ccc(OCCN2CCCCC2)cc1 [Compound 23, MPP]
Kd [2]: 1.8 nM

CC/C(=C(/c1ccc(N)cc1)c1ccc(OCCN2CCCC2)cc1)c1ccccc1 [Compound 27, (E)-4-(2-phenyl-1-(4-(2-(pyrrolidin-1-yl)ethoxy)phenyl)but-1-en-1-yl)aniline]
fold weaker than 9 [3]: 10 fold

CC/C(=C(/c1ccc(NCCN2CCCC2)cc1)c1ccc(OCCN2CCCC2)cc1)c1ccccc1 [Compound 28, (E)-4-(2-phenyl-1-(4-(2-(pyrrolidin-1-yl)ethoxy)phenyl)but-1-en-1-yl)-N-(2-(pyrrolidin-1-yl)ethyl)aniline]
IC50 [4, 12]: > 12.5 µM

CC/C(=C(/c1ccc(NC(=O)C2CCN(C)C2)cc1)c1ccc(OCCN2CCCC2)cc1)c1ccccc1 (stereo not drawn) [Compound 32, (E)-1-methyl-N-(4-(2-phenyl-1-(4-(2-(pyrrolidin-1-yl)ethoxy)phenyl)but-1-en-1-yl)phenyl)pyrrolidine-3-carboxamide]
antagonist activity at ER (in words) [5]: no antagonist activity | inhibition of viral entry (in words) [6]: improved potency | inhibition of viral entry (in words) [7]: improved potency | inhibition of pAIV-H5N1 (in words) [8]: Neither compounds showed appreciable inhibition | inhibition of viral entry (in words) [9]: improved potency | inhibition of pVSV (in words) [10]: Neither compounds showed appreciable inhibition

(E)-1-methyl-N-(4-(2-phenyl-1-(4-(2-(pyrrolidin-1-yl)ethoxy)phenyl)but-1-en-1-yl)phenyl)piperidine-4-carboxamide [Compound 30]
antagonist activity at ER (in words) [5]: no antagonist activity | inhibition of viral entry (in words) [6]: improved potency | fold more potent than 1 [3]: 10 fold | IC50 ([3]; read-out: IC50 (μM) EBOV): 0.09 ± 0.03 µM | inhibition of viral entry (in words) [7]: improved potency | IC50 [1]: 0.01 ± 0.005 µM | inhibition of pAIV-H5N1 (in words) [8]: Neither compounds showed appreciable inhibition | inhibition of viral entry (in words) [9]: improved potency | inhibition of pVSV (in words) [10]: Neither compounds showed appreciable inhibition | IC50 [4]: 0.54 ± 0.05 µM | fold more potent than 1 [11]: 6 fold | IC50 ([11]; read-out: IC50 (μM) MARV): 0.64 ± 0.12 µM

Acolbifene [Compound 10]
fold weaker than 1 [1]: more than 20 fold | IC50 [1]: 1.5 ± 0.3 µM
